Experiments:
Acute toxicity assay = format: in vivo; conditions: for Death rate: 10 mice; for Number of dead mice: of 5
Procedure: SPF BALB/c mice were divided into […] randomly (n = 10, 5 male, and 5 female) and injected intraperitoneally with defined dosages of compound 33a (90, 260, 350, 450, 600, and 800 mg/kg) or dilute (DMSO: castor oil: PBS = 1:2:7, v/v/v). The mice were observed continuously for 14 days after administration. The number of mortalities during the experiment was recorded, and the statistical result of the experimental endpoint was used to calculate LD50.

[1] = test system: CT26 colon cancer xenograft; experiment: CT26 xenograft tumor growth assay; format: in vivo, BALB/c mice
Procedure: All animal studies and procedures were approved by the Animal Ethics Committee of College of Chemistry and Chemical Engineering, Henan Normal University, China. CT26 cells (ATCC, Rockville, MD, USA) were used for tumor allograft experiments. […] Mice were injected with CT26 cells (1 × 10^7 per mouse) subcutaneously. The diameter of transplanted mouse tumors was measured with vernier calipers. […] The antitumor activity of the tested compounds was evaluated by measuring the tumor diameter. Tumor diameter and body weight were measured every two days. After 15 days, tumor tissues were surgically removed, weighed, and photographed. The tumor volume (TV) was calculated as in Eq. (1):(1) V=1/2×a×b^2 where a and b represent the length and width, respectively. Samples were used for histology. The tumor growth inhibition rate TGI (%) was calculated with Eq. (2):(2) TGI(%)=(1‒Tw/Cw)×100 where Tw and Cw are the average tumor weight on the 15th day for the treatment group and the model group, respectively.

SMILES: CCOC(=O)[C@]1(n2cnc3c(N4CCCCC4)nc(F)nc32)CSC[C@H]1O (racemic) [33a]
- Death rate (Acute toxicity assay; 90 mg/kg i.p.): 0%
- Number of dead mice (Acute toxicity assay; 90 mg/kg, ♀): 0
- Number of dead mice (Acute toxicity assay; 90 mg/kg, ♂): 0
- Death rate (Acute toxicity assay; 260 mg/kg i.p.): 0%
- Number of dead mice (Acute toxicity assay; 260 mg/kg, ♀): 0
- Number of dead mice (Acute toxicity assay; 260 mg/kg, ♂): 0
- Death rate (Acute toxicity assay; 350 mg/kg i.p.): 10%
- Number of dead mice (Acute toxicity assay; 350 mg/kg, ♀): 1
- Number of dead mice (Acute toxicity assay; 350 mg/kg, ♂): 0
- Death rate (Acute toxicity assay; 450 mg/kg i.p.): 20%
- Number of dead mice (Acute toxicity assay; 450 mg/kg, ♀): 2
- Number of dead mice (Acute toxicity assay; 450 mg/kg, ♂): 0
- Death rate (Acute toxicity assay; 600 mg/kg i.p.): 60%
- Number of dead mice (Acute toxicity assay; 600 mg/kg, ♀): 3
- Number of dead mice (Acute toxicity assay; 600 mg/kg, ♂): 3
- Death rate (Acute toxicity assay; 800 mg/kg i.p.): 100%
- Number of dead mice (Acute toxicity assay; 800 mg/kg, ♀): 5
- Number of dead mice (Acute toxicity assay; 800 mg/kg, ♂): 5
- LD50 at 14 days (Acute toxicity assay; both sexes, mouse, in vivo, ip, BALB/c mice, intraperitoneal, observed 14 days): 553 mg/kg
- TGI ([1]; 20 mg/kg i.p. once a day for 14 days): 54.74%
- IHC of tumor tissue ([1]; 55 and 20 mg/kg): significantly reduce the expression of tumor proliferation markers Ki67 and PCNA, increase the expression of cleaved caspase-3, and decrease the expression of c-MYC
- effect on body weight ([1]; 55 and 20 mg/kg i.p., 14 days): did not show an obvious toxic effect on body weight
- tumor growth ([1]; 55 and 20 mg/kg i.p., 14 days, tumor volume and weight): significant dose-dependent inhibitory effect on tumor growth
- H&E staining of major organs ([1]; heart, liver, spleen, lung, kidney): the major organs showed no apparent evidence of injury or abnormality

Source: PMC12278645, “Design, synthesis, and antitumor activity of novel thioheterocyclic nucleoside derivatives by suppressing the c-MYC pathway” (Acta Pharmaceutica Sinica. B, 2025)
